According to ChEMBL document CHEMBL1212939, “Structure and relative potency of several karlotoxins from Karlodinium veneficum” (J Nat Prod, 2010):

Test: Toxicity in human erythrocytes assessed as hemolytic activity after 24 hrs
Type: cell-based, Erythrocyte
In the case of `C=C(CCC(O)C1OC(CC(O)C(O)C(C)CCCC(O)C(O)C(O)C(C)CCC(O)C(O)C(C)CC(O)CCCC(O)CCCC(O)/C=C/CC(O)CO)C(O)C(O)C1O)C(O)C(O)C1CC(O)C(O)C(C(O)C(O)/C=C/CCCCCCCCC/C=C/C=C/Cl)O1` (stereo not given), the EC50 at 24 h is reported as 110 nM. `C=C/C=C/CCCCCCCCCC/C=C/C(O)C(O)C1OC(C(O)C(O)C(=C)CCC(O)C2OC(CC(O)C(O)C(C)CCCC(O)C(O)C(O)C(C)CCC(O)C(O)C(C)CC(O)CCCC(O)CCCC(O)/C=C/CC(O)CO)C(O)C(O)C2O)CC(O)C1O` (stereo not given) showed an EC50 at 24 h of 63 nM. `C=C/C=C/CCCCCCCCC/C=C/C(O)C(O)C1OC(C(O)C(O)C(=C)CCC(O)C2OC(CC(O)C(O)C(C)CCCC(O)C(O)C(O)C(C)CCC(O)C(O)C(C)CC(O)CCCC(O)CCCC(O)/C=C/CC(O)CO)C(O)C(O)C2O)CC(O)C1O` (stereo not given) gave an EC50 at 24 h of 200 nM. With `C=C(CCC(O)C1OC(CC(O)C(O)C(C)CCCC(O)C(O)C(O)C(C)CCC(O)C(O)C(C)CC(O)CCCC(O)CCCC(O)/C=C/CC(O)CO)C(O)C(O)C1O)C(O)C(O)C1CC(O)C(O)C(C(O)C(O)/C=C/CCCCCCCCCC/C=C/C=C/Cl)O1` (stereo not given) the EC50 at 24 h was 56 nM. `C=C/C=C/CCCCCCCCCC/C=C/C(O)C(O)C1OC(C(O)C(O)C(=C)CCC(O)C2OC(CC(O)C(O)C(C)CCCC(O)C(O)C(O)C(C)CCC(O)C(O)C(C)CC(O)CCCC(CCCC(O)/C=C/CC(O)CO)OS(=O)(=O)O)C(O)C(O)C2O)CC(O)C1O` (stereo not given) showed an EC50 at 24 h of 300 nM.
